Assay results as given in PubChem BioAssay (NCI).
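96-well plates; 48 h exposure; 5 concentrations. Endpoints by linear interpolation between flanking doses. Not reached: highest tested concentration assigned. GI50 is the concentration that inhibits growth by half. TGI denotes the concentration required for complete inhibition of growth.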

What was measured:
Test in all cases: NCI-60 cell line screen, 48 h
[1] = system: CAKI-1 renal
[2] = system: HOP-62 NSCLC
[3] = system: KM12 colon
[4] = system: LOX IMVI melanoma
[5] = system: OVCAR-3 ovarian
[6] = system: RXF 393 renal
[7] = system: SF-268 CNS
[8] = system: SNB-19 CNS
[9] = system: U251 CNS
[10] = system: UACC-62 melanoma

## Cc1ccc(N2C(=O)/C(=C/c3ccc(N(CCC#N)CCC#N)cc3)N=C2COc2ccc(Cl)cc2Cl)cc1
[1]
  TGI: > 100 µM
[2]
  TGI: > 100 µM
[3]
  TGI: > 100 µM
[4]
  TGI: > 100 µM
[5]
  TGI: > 100 µM
[6]
  TGI: > 100 µM
[7]
  TGI: > 100 µM
[8]
  TGI: > 100 µM
[9]
  TGI: > 100 µM
[10]
  TGI: > 100 µM

## CN1CCN=C1c1nnn(-c2ccc([N+](=O)[O-])cc2)c1-c1ccccc1
[1]
  TGI: > 100 µM
[2]
  TGI: > 100 µM
[3]
  TGI: > 100 µM
[4]
  TGI: > 100 µM
[5]
  TGI: > 100 µM
[6]
  TGI: > 100 µM
[7]
  TGI: > 100 µM
[8]
  TGI: > 100 µM
[9]
  TGI: > 100 µM
[10]
  TGI: > 100 µM

## O=C1NC(=O)C(c2cccc(Cl)c2)=C1Nc1ccc(Cl)c(C(=O)O)c1
[1]
  GI50: > 25 µM
  TGI: > 25 µM
[2]
  GI50: > 25 µM
  TGI: > 25 µM
[3]
  GI50: > 25 µM
  TGI: > 25 µM
[4]
  GI50: > 25 µM
  TGI: > 25 µM
[5]
  GI50: > 25 µM
  TGI: > 25 µM
[6]
  GI50: > 25 µM
  TGI: > 25 µM
[7]
  GI50: > 25 µM
  TGI: > 25 µM
[8]
  GI50: > 25 µM
  TGI: > 25 µM
[9]
  GI50: > 25 µM
  TGI: > 25 µM
[10]
  GI50: > 25 µM
  TGI: > 25 µM

## Cc1nc(NS(=O)(=O)c2ccc(NCN3C(=O)c4ccccc4C3=O)cc2)oc1C
[1]
  GI50: > 100 µM
  TGI: > 100 µM
[2]
  GI50: > 100 µM
  TGI: > 100 µM
[3]
  GI50: > 100 µM
  TGI: > 100 µM
[4]
  GI50: > 100 µM
  TGI: > 100 µM
[5]
  GI50: > 100 µM
  TGI: > 100 µM
[6]
  GI50: > 100 µM
  TGI: > 100 µM
[7]
  GI50: > 100 µM
  TGI: > 100 µM
[8]
  GI50: > 100 µM
  TGI: > 100 µM
[9]
  GI50: > 100 µM
  TGI: > 100 µM
[10]
  GI50: > 100 µM
  TGI: > 100 µM

## CC(C)[P+](c1ccccc1)(c1ccccc1)c1ccccc1
[1]
  GI50: 50.7 µM
  TGI: > 100 µM
[2]
  GI50: 19 µM
  TGI: > 100 µM
[3]
  GI50: 2.57 µM
  TGI: > 100 µM
[4]
  GI50: 9.94 µM
  TGI: > 100 µM
[5]
  GI50: 4.49 µM
  TGI: > 100 µM
[6]
  GI50: 27.4 µM
  TGI: > 100 µM
[7]
  GI50: 5.11 µM
  TGI: > 100 µM
[8]
  GI50: 5.54 µM
  TGI: > 100 µM
[9]
  GI50: 4.11 µM
  TGI: > 100 µM
[10]
  GI50: 4.2 µM
  TGI: > 100 µM

## C=CCC12CC(=O)CCC1c1ccc(OC)cc1C2=O (stereo not given)
[1]
  TGI: > 100 µM
[2]
  TGI: > 100 µM
[3]
  TGI: > 100 µM
[4]
  TGI: > 100 µM
[5]
  TGI: > 100 µM
[6]
  TGI: > 100 µM
[7]
  TGI: > 100 µM
[8]
  TGI: > 100 µM
[9]
  TGI: > 100 µM
[10]
  TGI: > 100 µM

## CCN1CCN(c2cc(C(=O)Nc3cccc(Nc4ccc5c(OC)cccc5n4)c3)cc(C(F)(F)F)c2)CC1
[1]
  GI50: 0.917 µM
  TGI: 4.97 µM
[2]
  GI50: 1.02 µM
  TGI: 4.04 µM
[3]
  GI50: 1.71 µM
  TGI: 6.35 µM
[4]
  GI50: 0.781 µM
  TGI: 1.96 µM
[5]
  GI50: 3.41 µM
  TGI: 9.04 µM
[6]
  GI50: 0.918 µM
  TGI: 4.86 µM
[7]
  GI50: 1.76 µM
  TGI: 7.41 µM
[8]
  GI50: 2.1 µM
  TGI: 7.01 µM
[9]
  GI50: 1.36 µM
  TGI: 4.94 µM
[10]
  GI50: 1.5 µM
  TGI: 5.77 µM

## COc1cc(S(=O)(=O)Nc2nc(-c3ccc(N4C(=O)C(C)SC4c4ccccc4O)cc3)cs2)ccc1Cl (stereo not given)
[1]
  GI50: 67.7 µM
  TGI: > 100 µM
[2]
  GI50: 59.4 µM
  TGI: > 100 µM
[3]
  GI50: 51.1 µM
  TGI: > 100 µM
[4]
  GI50: 52.1 µM
  TGI: > 100 µM
[5]
  GI50: 35.6 µM
  TGI: > 100 µM
[6]
  GI50: > 100 µM
  TGI: > 100 µM
[7]
  GI50: 41.4 µM
  TGI: > 100 µM
[8]
  GI50: 43.3 µM
  TGI: > 100 µM
[9]
  GI50: 32.8 µM
  TGI: > 100 µM
[10]
  GI50: 39.9 µM
  TGI: > 100 µM

## Nc1c(C(=O)c2cccc(C(O)CO)c2)cnn1-c1ccc(F)cc1 (stereo not given)
[1]
  GI50: > 25 µM
  TGI: > 25 µM
[2]
  GI50: > 25 µM
  TGI: > 25 µM
[3]
  GI50: > 25 µM
  TGI: > 25 µM
[4]
  GI50: > 25 µM
  TGI: > 25 µM
[5]
  GI50: > 25 µM
  TGI: > 25 µM
[6]
  GI50: > 25 µM
  TGI: > 25 µM
[7]
  GI50: > 25 µM
  TGI: > 25 µM
[8]
  GI50: > 25 µM
  TGI: > 25 µM
[9]
  GI50: > 25 µM
  TGI: > 25 µM
[10]
  GI50: > 25 µM
  TGI: > 25 µM

## Cc1c(Nc2nccc3cc(CN4CC[C@@H](O)C4)cnc23)cccc1-c1cccc(-c2nc3cc(CN4CC[C@@H](C(=O)O)C4)cc(C#N)c3o2)c1C
[1]
  GI50: > 100 µM
  TGI: > 100 µM
[2]
  GI50: > 100 µM
  TGI: > 100 µM
[3]
  GI50: 10.7 µM
  TGI: 27.6 µM
[4]
  GI50: 1.97 µM
  TGI: 4.27 µM
[5]
  GI50: 14.8 µM
  TGI: > 100 µM
[6]
  GI50: 2 µM
  TGI: 5.41 µM
[7]
  GI50: 10.9 µM
  TGI: > 100 µM
[8]
  GI50: 16.5 µM
  TGI: 46.2 µM
[9]
  GI50: 12.1 µM
  TGI: 26.8 µM
[10]
  GI50: 15.7 µM
  TGI: 38.1 µM

## CCC1CCCCN1CC(C(C)=O)C(c1ccccc1)c1c(O)c2ccccc2oc1=O (stereo not given)
[1]
  TGI: > 100 µM
[2]
  TGI: > 100 µM
[3]
  TGI: > 100 µM
[4]
  TGI: > 100 µM
[5]
  TGI: > 100 µM
[6]
  TGI: > 100 µM
[7]
  TGI: > 100 µM
[8]
  TGI: > 100 µM
[9]
  TGI: > 100 µM
[10]
  TGI: > 100 µM

## COC1=C(OC)C(=O)C(C/C=C(\C)CC/C=C(\C)CC/C=C(\C)CC/C=C(\C)CC/C=C(\C)CC/C=C(\C)CC/C=C(\C)CC/C=C(\C)CC/C=C(\C)CCC=C(C)C)=C(C)C1=O
[1]
  GI50: > 100 µM
  TGI: > 100 µM
[2]
  GI50: > 100 µM
  TGI: > 100 µM
[3]
  GI50: > 100 µM
  TGI: > 100 µM
[4]
  GI50: > 100 µM
  TGI: > 100 µM
[5]
  GI50: > 100 µM
  TGI: > 100 µM
[6]
  GI50: > 100 µM
  TGI: > 100 µM
[7]
  GI50: > 100 µM
  TGI: > 100 µM
[8]
  GI50: > 100 µM
  TGI: > 100 µM
[9]
  GI50: > 100 µM
  TGI: > 100 µM
[10]
  GI50: > 100 µM
  TGI: > 100 µM

## CS(=O)(=O)c1ccc(COP(N)(=O)N(CCCl)CCCl)cc1 (stereo not given)
[1]
  TGI: > 100 µM
[2]
  TGI: > 100 µM
[3]
  TGI: > 100 µM
[4]
  TGI: > 100 µM
[5]
  TGI: > 100 µM
[6]
  TGI: > 100 µM
[7]
  TGI: > 100 µM
[8]
  TGI: > 100 µM
[9]
  TGI: > 100 µM
[10]
  TGI: > 100 µM

## O=C1CS/C(=N/S(=O)(=O)c2ccc(N3N=C4c5ccccc5CC4C3c3cccs3)cc2)N1C(=O)c1ccccc1 (stereo not given)
[1]
  GI50: 63.9 µM
  TGI: > 100 µM
[2]
  GI50: 32.9 µM
  TGI: 63 µM
[3]
  GI50: 21.4 µM
  TGI: 56.4 µM
[4]
  GI50: 22.7 µM
  TGI: 54 µM
[5]
  GI50: 59.2 µM
  TGI: > 100 µM
[6]
  GI50: 90.7 µM
  TGI: > 100 µM
[7]
  GI50: > 100 µM
  TGI: > 100 µM
[8]
  GI50: 77 µM
  TGI: > 100 µM
[9]
  GI50: 36.3 µM
  TGI: > 100 µM
[10]
  GI50: 23.2 µM
  TGI: 58.4 µM
